For data set [1], the system named is pediatric subjects. To be noted: human, in vivo; cited from earlier work.
Data set [2] deals with MCT8-deficient (knockout) mice (Mct8KO). To be noted: cited from earlier work.
Data set [3] has as its system MCT8 mutant (mct8−/−) zebrafish. To be noted: cited from earlier work.
The test system of data set [4] is child having a G-tube. Kind of data set: Effect of DITPA on removal of G-tube. It counts as in vivo, human. To be noted: one child who started DITPA while having a G-tube.
Data set [5] concerns pediatric patient suffering from Allan-Herndon-Dudley Syndrome. Kind of data set: Dosing regimen for a pediatric subject, T3 serum levels. It counts as in vivo, human. The method, then: Following the first 2 weeks, the daily dosage was increased to 2 mg/kg/day for 2 additional weeks. […] Following the first 2 weeks, the daily dosage was increased to 2 mg/kg/day for 2 additional weeks. […] Following the first 2 weeks, the daily dosage was increased to 2 mg/kg/day for 2 additional weeks.

For data set [6] the following is noted: ambient temperature and light; cited from earlier work.

Results on two compounds are retold here after patent US20240009157A1 (PriZm, LLC, priority 2022, published 2024).

Structures are written as SMILES.

With `O=C(O)Cc1cc(I)c(Oc2ccc(O)c(I)c2)c(I)c1` [TRIAC, triiodothyroacetic acid], the “effects in pediatric subjects” value in data set [1] is recorded as “subjects with positive effects”.

Consider `O=C(O)CCc1cc(I)c(Oc2ccc(O)cc2)c(I)c1` [DITPA, 3,5-diiodothyropropionic acid], for which, in data set [2], the “MCT8 dependence of entry into the brain” value is given as “independent for entry into the brain”; the TH deficit result was “corrects the TH deficit”; the “measurements and other parameters of TH action” value was “showed that SRW101 normalized all measurements and other”; the “thyrotoxic effect in the liver” value was “Mct8KO mice without causing thyrotoxic effect in the liver (Di”. Moreover, the “thyrotoxic state in the liver (analysis of TH target genes)” value in data set [2] was “amelioration of the thyrotoxic state in the liver (ameliorating”. Moreover, the “hypomyelination in the CNS” value in data set [3] was “SRW101 and other TH analogs partially rescued the hypomyelination”. In data set [4], the G-tube entry is recorded as “g-tube was removed” and the body weight entry was “gained weight”. In data set [5] (1 mg/kg/day for 2 weeks, then 2 mg/kg/day for 2 additional weeks, above normal), the “T3 serum levels above normal” value is recorded as “more than 15%”. Moreover, the “T3 serum levels below normal” value in data set [5] (1 mg/kg/day for 2 weeks, then 2 mg/kg/day for 2 additional weeks, below normal) was “more than 15%”. Besides, in data set [5] (after 1.0 mg/kg/day for 28 days), the “T3 serum levels upon reassessment” value is “normal”. Besides, in data set [5] (after 1.5 mg/kg/day for 28 days), the “T3 serum levels upon reassessment” value is “normal”. For the same compound, the “T3 serum levels upon reassessment, below normal” value in data set [5] (after 1.5 mg/kg/day for 28 days, below normal) was “more than 15%”. In addition, the “T3 serum levels upon reassessment” value in data set [5] (after 2.5 mg/kg/day for 28 days) is recorded as “normal”. Besides, the stability result in data set [6] is “stable at ambient temperature and light”.
